In ChEMBL document CHEMBL1201861, “Genomics of Drug Sensitity in Cancer screening data, Wellcome Trust Sanger Institute”:
Blank lines part the entries; values can stand above or below the molecule they belong to.

What was measured:
Assay in all cases: cells
NCI-H1355 = type: functional, cell-based, Homo sapiens; details: Homo sapiens, NCI-H1355;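 further: growth inhibition of human NCI-H1355 cells, read out by a cell viability assay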
Description: SANGER: Inhibition of human NCI-H1355 cell growth in a cell viability assay.

K5 = type: functional, cell-based, Homo sapiens; details: Homo sapiens, K5
Description: SANGER: Inhibition of human K5 cell growth in a cell viability assay.

GOTO = type: functional, cell-based, Homo sapiens; details: Homo sapiens, GOTO;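 further: growth inhibition of GOTO cells, read out by a cell viability assay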
Description: SANGER: Inhibition of human GOTO cell growth in a cell viability assay.

NCI-H747 = type: functional, cell-based, Homo sapiens; details: Homo sapiens, NCI-H747;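 further: growth inhibition of human NCI-H747 cells, read out by a cell viability assay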
Description: SANGER: Inhibition of human NCI-H747 cell growth in a cell viability assay.

NCI-H1395 = type: functional, cell-based, Homo sapiens; details: Homo sapiens, NCI-H1395;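 further: cell viability assay read-out quantifying reduced proliferation of human NCI-H1395 cells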
Description: SANGER: Inhibition of human NCI-H1395 cell growth in a cell viability assay.

NB69 = type: functional, cell-based, Homo sapiens; details: Homo sapiens, NB69;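 further: growth inhibition of NB69 cells, determined by a cell viability assay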
Description: SANGER: Inhibition of human NB69 cell growth in a cell viability assay.

U-87 MG = type: functional, cell-based, Homo sapiens, U-87MG ATCC; details: Homo sapiens, U-87 MG;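 further: growth inhibition of the cells measured with a viability assay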
Description: SANGER: Inhibition of human U-87-MG cell growth in a cell viability assay.

DSH1 = type: functional, cell-based, Homo sapiens; details: Homo sapiens, DSH1;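 further: growth inhibition of human DSH1 cells, measured with a cell viability readout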
Description: SANGER: Inhibition of human DSH1 cell growth in a cell viability assay.

MPP-89 = type: functional, cell-based, Homo sapiens; details: Homo sapiens, MPP-89;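 further: growth inhibition of human MPP-89 cells, read out with a cell viability assay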
Description: SANGER: Inhibition of human MPP-89 cell growth in a cell viability assay.

EW-11 = type: functional, cell-based, Homo sapiens; details: Homo sapiens, EW-11;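 further: growth inhibition of human EW-11 cells, measured with a cell viability assay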
Description: SANGER: Inhibition of human EW-11 cell growth in a cell viability assay.

SNU-C2B = type: functional, cell-based, Homo sapiens; details: Homo sapiens, SNU-C2B;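 further: cell viability readout used to measure compound-driven suppression of SNU-C2B cell proliferation, IC50 marking half-maximal growth inhibition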
Description: SANGER: Inhibition of human SNU-C2B cell growth in a cell viability assay.

OCUB-M = type: functional, cell-based, Homo sapiens; details: Homo sapiens, OCUB-M;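 further: growth inhibition of the cancer cell line, read out through a cell viability assay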
Description: SANGER: Inhibition of human OCUB-M cell growth in a cell viability assay.

KS-1 = type: functional, cell-based, Homo sapiens; details: Homo sapiens, KS-1;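 further: growth inhibition of KS-1 cells, read out with a cell viability assay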
Description: SANGER: Inhibition of human KS-1 cell growth in a cell viability assay.

D-247MG = type: functional, cell-based, Homo sapiens; details: Homo sapiens, D-247MG
Description: SANGER: Inhibition of human D-247MG cell growth in a cell viability assay.

GI-1 = type: functional, cell-based, Homo sapiens; details: Homo sapiens, GI-1;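 further: growth inhibition of human GI-1 cells, measured with a cell viability readout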
Description: SANGER: Inhibition of human GI-1 cell growth in a cell viability assay.

GB-1 = type: functional, cell-based, Homo sapiens; details: Homo sapiens, GB-1;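 further: growth of GB-1 cells judged by a viability assay, IC50 marks the concentration inhibiting growth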
Description: SANGER: Inhibition of human GB-1 cell growth in a cell viability assay.

GI-ME-N = type: functional, cell-based, Homo sapiens; details: Homo sapiens, GI-ME-N;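 further: growth inhibition of human GI-ME-N cells, read out with a cell viability assay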
Description: SANGER: Inhibition of human GI-ME-N cell growth in a cell viability assay.

TE-6 = type: functional, cell-based, Homo sapiens; details: Homo sapiens, TE-6;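 further: growth inhibition of TE-6 cells, read out with a cell viability assay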
Description: SANGER: Inhibition of human TE-6 cell growth in a cell viability assay.

OS-RC-2 = type: functional, cell-based, Homo sapiens; details: Homo sapiens, OS-RC-2;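 further: growth inhibition of human OS-RC-2 cells, measured by a cell viability assay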
Description: SANGER: Inhibition of human OS-RC-2 cell growth in a cell viability assay.

IA-LM = type: functional, cell-based, Homo sapiens; details: Homo sapiens, IA-LM;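 further: cell viability assay measuring growth inhibition of human IA-LM cells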
Description: SANGER: Inhibition of human IA-LM cell growth in a cell viability assay.

IST-MES1 = type: functional, cell-based, Homo sapiens; details: Homo sapiens, IST-MES1;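 further: growth inhibition of IST-MES1 cells, measured with a cell viability assay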
Description: SANGER: Inhibition of human IST-MES1 cell growth in a cell viability assay.

NB13 = type: functional, cell-based, Homo sapiens; details: Homo sapiens, NB13;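 further: cell viability readout measuring growth inhibition of human NB13 cells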
Description: SANGER: Inhibition of human NB13 cell growth in a cell viability assay.

HOP-62 = type: functional, cell-based, Homo sapiens; details: Homo sapiens, HOP-62;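 further: cell growth inhibition determined with a viability assay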
Description: SANGER: Inhibition of human HOP-62 cell growth in a cell viability assay.

IST-SL1 = type: functional, cell-based, Homo sapiens; details: Homo sapiens, IST-SL1;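 further: growth inhibition of human IST-SL1 cells, read out with a cell viability assay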
Description: SANGER: Inhibition of human IST-SL1 cell growth in a cell viability assay.

MMAC-SF = type: functional, cell-based, Homo sapiens; details: Homo sapiens, MMAC-SF;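 further: growth inhibition of human MMAC-SF cells, read out with a cell viability assay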
Description: SANGER: Inhibition of human MMAC-SF cell growth in a cell viability assay.

C2BBe1 = type: functional, cell-based, Homo sapiens; details: Homo sapiens, C2BBe1;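 further: growth inhibition of C2BBe1 cells, read out through a viability assay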
Description: SANGER: Inhibition of human C2BBe1 cell growth in a cell viability assay.

TK-10 = type: functional, cell-based, Homo sapiens; details: Homo sapiens, TK-10;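 further: growth inhibition of TK-10 cells, read out in a cell viability assay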
Description: SANGER: Inhibition of human TK10 cell growth in a cell viability assay.

D283 Med = type: functional, cell-based, Homo sapiens; details: Homo sapiens, D283 Med
Description: SANGER: Inhibition of human D-283MED cell growth in a cell viability assay.

D-502MG = type: functional, cell-based, Homo sapiens; details: Homo sapiens, D-502MG
Description: SANGER: Inhibition of human D-502MG cell growth in a cell viability assay.

TE-11 = type: functional, cell-based, Homo sapiens; details: Homo sapiens, TE-11;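 further: growth inhibition of human TE-11 cells, read out by a cell viability assay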
Description: SANGER: Inhibition of human TE-11 cell growth in a cell viability assay.

CAS-1 = type: functional, cell-based, Homo sapiens; details: Homo sapiens, CAS-1;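 further: growth inhibition of CAS-1 cells, measured with a cell viability assay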
Description: SANGER: Inhibition of human CAS-1 cell growth in a cell viability assay.

MSTO-211H = type: functional, cell-based, Homo sapiens; details: Homo sapiens, MSTO-211H
Description: SANGER: Inhibition of human MSTO-211H cell growth in a cell viability assay.

RCC10RGB = type: functional, cell-based, Homo sapiens; details: Homo sapiens, RCC10RGB;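 further: growth inhibition of human RCC10RGB cells, read out by a cell viability assay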
Description: SANGER: Inhibition of human RCC10RGB cell growth in a cell viability assay.

CGTH-W-1 = type: functional, cell-based, Homo sapiens; details: Homo sapiens, CGTH-W-1;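 further: growth inhibition of human CGTH-W-1 cells measured by cell viability assay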
Description: SANGER: Inhibition of human CGTH-W-1 cell growth in a cell viability assay.

Ramos-2G6-4C10 = type: functional, cell-based, Homo sapiens; details: Homo sapiens, Ramos-2G6-4C10;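 further: growth inhibition of the cell line, measured by a cell viability read-out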
Description: SANGER: Inhibition of human Ramos-2G6-4C10 cell growth in a cell viability assay.

SK-NEP-1 = type: functional, cell-based, Homo sapiens; details: Homo sapiens, SK-NEP-1;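 further: growth inhibition of human SK-NEP-1 cells, read out by a cell viability assay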
Description: SANGER: Inhibition of human SK-NEP-1 cell growth in a cell viability assay.

RS4-11 = type: functional, cell-based, Homo sapiens; details: Homo sapiens, RS4-11;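 further: growth inhibition of RS4-11 cells, read out by a cell viability assay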
Description: SANGER: Inhibition of human RS4-11 cell growth in a cell viability assay.

EM-2 = type: functional, cell-based, Homo sapiens; details: Homo sapiens, EM-2;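 further: growth inhibition of EM-2 cells, read out with a cell viability assay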
Description: SANGER: Inhibition of human EM-2 cell growth in a cell viability assay.

BE-13 = type: functional, cell-based, Homo sapiens; details: Homo sapiens, BE-13;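 further: growth inhibition of human BE-13 cells, measured with a cell viability assay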
Description: SANGER: Inhibition of human BE-13 cell growth in a cell viability assay.

EW-3 = type: functional, cell-based, Homo sapiens; details: Homo sapiens, EW-3;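 further: cell viability assay read-out, IC50 reflects inhibition of growth of the EW-3 cells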
Description: SANGER: Inhibition of human EW-3 cell growth in a cell viability assay.

MOLT-16 = type: functional, cell-based, Homo sapiens; details: Homo sapiens, MOLT-16;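 further: growth inhibition of human MOLT-16 cells, read out with a cell viability assay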
Description: SANGER: Inhibition of human MOLT-16 cell growth in a cell viability assay.

HDLM-2 = type: functional, cell-based, Homo sapiens; details: Homo sapiens, HDLM-2;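 further: cell viability assay measuring suppression of HDLM-2 proliferation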
Description: SANGER: Inhibition of human HDLM-2 cell growth in a cell viability assay.

SK-MEL-1 = type: functional, cell-based, Homo sapiens; details: Homo sapiens, SK-MEL-1;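 further: growth inhibition of human SK-MEL-1 cells, read out by a cell viability assay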
Description: SANGER: Inhibition of human SK-MEL-1 cell growth in a cell viability assay.

U-266 = type: functional, cell-based, Homo sapiens; details: Homo sapiens, U-266
Description: SANGER: Inhibition of human U-266 cell growth in a cell viability assay.

DU-4475 = type: functional, cell-based, Homo sapiens; details: Homo sapiens, DU-4475
Description: SANGER: Inhibition of human DU-4475 cell growth in a cell viability assay.

NCI-H526 = type: functional, cell-based, Homo sapiens; details: Homo sapiens, NCI-H526;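 further: growth inhibition of the human NCI-H526 cell line, measured by a cell viability assay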
Description: SANGER: Inhibition of human NCI-H526 cell growth in a cell viability assay.

NCI-H1304 = type: functional, cell-based, Homo sapiens; details: Homo sapiens, NCI-H1304;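 further: growth inhibition of the cancer cell line, measured in a cell viability assay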
Description: SANGER: Inhibition of human NCI-H1304 cell growth in a cell viability assay.

IC50 (NCI-H1355): 1290 nM
IC50 (K5): 1770 nM
IC50 (GOTO): 171 nM
IC50 (NCI-H747): 130 nM
IC50 (NCI-H1395): 612 nM
IC50 (NB69): 877 nM
IC50 (U-87 MG): 82.2 nM
IC50 (DSH1): 517 nM
IC50 (MPP-89): 1270 nM
IC50 (EW-11): 434 nM
IC50 (SNU-C2B): 257 nM
IC50 (OCUB-M): 243 nM
IC50 (KS-1): 322 nM
IC50 (D-247MG): 936 nM
IC50 (GI-1): 128 nM
IC50 (GB-1): 98.7 nM
IC50 (GI-ME-N): 403 nM
IC50 (TE-6): 24500 nM
IC50 (OS-RC-2): 737 nM
IC50 (IA-LM): 1560 nM
IC50 (IST-MES1): 214 nM
IC50 (NB13): 158 nM
IC50 (HOP-62): 365 nM
IC50 (IST-SL1): 438 nM
IC50 (MMAC-SF): 3140 nM
IC50 (C2BBe1): 266 nM
IC50 (TK-10): 462 nM
IC50 (D283 Med): 284 nM
IC50 (D-502MG): 4920 nM
IC50 (TE-11): 151 nM
IC50 (CAS-1): 2780 nM
IC50 (MSTO-211H): 789 nM
IC50 (RCC10RGB): 13800 nM
IC50 (CGTH-W-1): 186 nM
SMILES: CC(C)c1ccccc1Cc1cc(C(=O)Nc2ccc(S(=O)(=O)c3ccccc3C(C)(C)C)cc2)c(O)c(O)c1O

SMILES: CC(C)CCN1c2nc(Nc3cc(F)c(O)c(F)c3)ncc2N(C)C(=O)C1C (stereo unspecified)
IC50 (NCI-H1355): > 5000 nM
IC50 (K5): > 5000 nM
IC50 (Ramos-2G6-4C10): 1700 nM
IC50 (GOTO): 3280 nM
IC50 (SK-NEP-1): 2040 nM
IC50 (RS4-11): > 5000 nM
IC50 (EM-2): 2920 nM
IC50 (NCI-H747): > 5000 nM
IC50 (NCI-H1395): 2470 nM
IC50 (NB69): > 5000 nM
IC50 (BE-13): 1590 nM
IC50 (EW-3): 35.8 nM
IC50 (U-87 MG): > 5000 nM
IC50 (MOLT-16): > 5000 nM
IC50 (HDLM-2): > 5000 nM
IC50 (DSH1): > 5000 nM
IC50 (MPP-89): > 5000 nM
IC50 (EW-11): 3410 nM
IC50 (SK-MEL-1): > 5000 nM
IC50 (SNU-C2B): 3390 nM
IC50 (OCUB-M): > 5000 nM
IC50 (KS-1): > 5000 nM
IC50 (D-247MG): > 5000 nM
IC50 (U-266): 4610 nM
IC50 (GI-1): 3150 nM
IC50 (GB-1): > 5000 nM
IC50 (GI-ME-N): > 5000 nM
IC50 (DU-4475): 504 nM
IC50 (TE-6): > 5000 nM
IC50 (OS-RC-2): > 5000 nM
IC50 (IA-LM): > 5000 nM
IC50 (IST-MES1): > 5000 nM
IC50 (NB13): > 5000 nM
IC50 (HOP-62): 4310 nM
IC50 (IST-SL1): 846 nM
IC50 (NCI-H526): > 5000 nM
IC50 (NCI-H1304): > 5000 nM
IC50 (MMAC-SF): > 5000 nM
IC50 (C2BBe1): > 5000 nM
IC50 (TK-10): > 5000 nM
IC50 (D283 Med): 2240 nM
IC50 (D-502MG): 3070 nM
IC50 (TE-11): > 5000 nM
IC50 (CAS-1): > 5000 nM
IC50 (MSTO-211H): > 5000 nM
IC50 (RCC10RGB): > 5000 nM
IC50 (CGTH-W-1): 3940 nM
